Structures can show the parent of a compound that is named as a salt. No end group written: not given here. *: point of attachment. FITC = O=C1OC2(c3ccc(O)cc3Oc3cc(O)ccc32)c2ccc(NC(=S)*)cc21
How the values were obtained:
Assay type in all cases: cell-based, human
A431 cells [1] = assay: MTT assay, cell viability in the presence of endocytosis inhibitors; settings: Cyt D 10 µg/mL, genistein 200 µM, CPZ 6 µg/mL, MβCD 1.5 mM, n = 3
A431 cells [2] = assay: Endocytosis inhibitory assay (entry of FITC-peptide, fluorescence microscopy); settings: 30 min pre-treatment, then FITC-NRPDSAQFWLHH 0.25 mM, 16 h, 37 °C; CPZ 6 µg/mL, MβCD 1.5 mM, Cyt D 10 µg/mL, genistein 200 µM
Description: Four endocytosis inhibitors [Cyt D (10 µg/mL; Calbiochem, San Diego, California, USA), CPZ (6 µg/mL; Santa Cruz Biotechnology, Dallas, Texas, USA), MβCD (1.5 mM; Sigma Aldrich, St. Louis, Missouri, USA) and genistein (200 µM; Calbiochem, San Diego, California, USA)] were used to study the energy-dependent endocytosis of peptide […] into A431 cells. The cells (200,000 cells/well) were seeded onto sterile glass coverslips which had been placed in a six-well plate, and incubated at 37 °C for overnight. The medium was then removed and the cells were pretreated with the inhibitors at 37 °C for 30 min. After the pretreatment with inhibitors, FITC-[…] (0.25 mM) was added to the cells and incubated for 16 h at 37 °C in the presence of inhibitors. After removing the medium, the cells were washed, fixed and stained with Hoechst 33342. The cells were mounted onto a glass slide and examined under a fluorescence microscope.

HT29 cells = assay: Internalisation of FITC-labelled peptide in cell line with lower EGFr expression; settings: 0.25 mM, 37 °C, 16 h; HT29 9 × 10^3 EGFr/cell; fluorescence microscopy
Description: (§1) A431 and HT29 cell lines (200,000 cells/well) were seeded onto sterile glass coverslips in a six-well plate and incubated overnight at 37 °C. After changing the medium, peptide FITC-[…] (0.25 mM) was added to the cell lines and incubated at 37 °C for 16 h in a CO2 incubator. The cells were then washed, fixed, stained with Hoechst 33342, and viewed under a fluorescence microscope. The amount of phage internalised into A431 and HT29 cells (1 × 10^6 cells) which had been incubated with the purified phage (1 × 10^12 pfu) at 37 °C for 12 h was measured with the phage titration assay as described above.

A431 cells [3] = assay: Internalisation of FITC-labelled peptide, fluorescence microscopy; settings: 0.25 mM, 37 °C, 16 h
Description: (§2) The selective internalisation property of peptide […] was tested on NHDF and A431 cells. These cells (200,000 cells/well) were seeded separately onto sterile glass coverslips which had been placed in a six-well plate, and incubated overnight at 37 °C. After changing the medium, the cells were added with FITC-conjugated peptide (FITC-[…]; 0.25 mM; Mimotopes Pty Ltd, Clayton, Victoria, Australia), and incubated for 16 h at 37 °C. The cells were then washed 3 times with PBS and fixed with paraformaldehyde [3.7% (w/v)]. Hoechst 33342 was added and incubated for 10 min to stain the cell nuclei. The cells were mounted onto a glass slide and observed under a fluorescence microscope.
as §1

NHDF cells = assay: as above; settings: 0.25 mM, 37 °C, 16 h
Description: as §2

CN(C)CCCN1c2ccccc2Sc2ccc(Cl)cc21 [CPZ, chlorpromazine hydrochloride]
Viability of A431 cells in the presence of inhibitor (A431 cells [1]): over 83%
Effect of endocytosis inhibitor on internalisation of peptide NRPDSAQFWLHH (green granular appearance) (A431 cells [2]): reduced drastically

methyl-β-cyclodextrin [MβCD]
Viability of A431 cells in the presence of inhibitor (A431 cells [1]): over 83%
Effect of endocytosis inhibitor on internalisation of peptide NRPDSAQFWLHH (green granular appearance) (A431 cells [2]): reduced drastically

C=C1[C@@H](C)[C@H]2[C@H](Cc3ccccc3)NC(=O)[C@]23[C@H](OC(C)=O)/C=C/[C@@](C)(O)C(=O)[C@@H](C)C/C=C/[C@H]3[C@@H]1O [Cyt D, cytochalasin D]
Viability of A431 cells in the presence of inhibitor (A431 cells [1]): over 83%
Effect of endocytosis inhibitor on internalisation of peptide NRPDSAQFWLHH (green granular appearance) (A431 cells [2]): did not inhibit internalisation

O=c1c(-c2ccc(O)cc2)coc2cc(O)cc(O)c12 [genistein]
Viability of A431 cells in the presence of inhibitor (A431 cells [1]): over 83%
Effect of endocytosis inhibitor on internalisation of peptide NRPDSAQFWLHH (green granular appearance) (A431 cells [2]): did not inhibit internalisation

{FITC}-NRPDSAQFWLHH
Internalisation of FITC-labelled peptide into HT29 cells (HT29 cells): no significant green fluorescent granules were observed
Internalisation of FITC-labelled peptide into A431 cells (A431 cells [3]): taken up efficiently
Internalisation of FITC-labelled peptide into NHDF cells (NHDF cells): no significant fluorescent signal was observed

Source: PMC5981617, “Targeted Delivery of Cell Penetrating Peptide Virus-like Nanoparticles to Skin Cancer Cells” (Scientific Reports, 2018)
